Source: patent US20130237556A1, “BERBERINE ALKALOID AS A MEDICAMENT FOR PREVENTION AND TREATMENT OF NEURAL DISEASE” (HONG KONG BAPTIST UNIVERSITY, priority 2012, published 2013)

Columns and labels:
TgCRND8 mice [1] = experiment: Aβ1-40 and Aβ1-42 sandwich ELISA in SDS and formic acid brain extracts; assay type: in vivo, mouse
[2] = BBR levels in TgCRND8 brain tissue by LC/MS after oral administration; assay type: in vivo, mouse; conditions: for concentration at 3 hr: TgCRND8, mouse, brain, po, 3 hr after p.o. administration, LC/MS
Experimental: To determine how oral administration of BBR influences the concentration of BBR in the brain, liquid chromatography and mass spectrometry techniques (LC/MS) are used to analyze changes in BBR levels in the TgCRND8 brain tissue in a separate experiment. BBR levels in the brain are found to be 0.88±0.27 and 1.67±0.73 μM for low and high doses of BBR respectively after 3 hr p.o. administration.

TgCRND8 mice [3] = experiment: Microgliosis (Iba-1 burden) and astrocytosis (GFAP burden) immunohistochemistry; assay type: in vivo, mouse
N2a-SwedAPP cells = experiment: Western blot of N2a-SwedAPP cell lysates (p-Akt, pGSK3, CTFs, p-APP, PHF-1); assay type: cell-based, mouse
Experimental: N2a-SweAPP cells are mouse neuroblastoma N2a cells stably transfected with human Swedish mutant APP695, and were gifts from Dr. Gopal Thinakaran (University of Chicago, Chicago Ill.). Cells were maintained in Dulbecco's modified Eagle's medium (DMEM) (Invitrogen, Carlsbad, Calif.) supplemented with 10% fetal bovine serum, penicillin and streptomycin and 200 μg/mL G418 (Invitrogen). Cells were cultured either in multiwell dishes or on 60 mm tissue culture plates in DMEM 10% with FBS Cell cultures were incubated at 37° C. in a humid 5% CO2/ 95% air environment. After cells were grown close to confluence, they were treated with/without different concentrations of BBR in DMEM (1% FBS) for 24 h. […] For the concentration-dependent treatment, cells were treated with serial dilutions of BBR ranging from 0-20 μM for 2 or 12 h prior to lysis with ice-cold RIPA buffer (20 mM Tris, pH 7.4, 150 mM NaCl, 1% triton-X, 0.5% sodium deoxycholate, EDTA) containing protease inhibitor cocktails (EMD chemicals, Philadelphia, Pa.) to find the optimal range of BBR. For the time-dependent application, cells were treated with a 20 μM concentration of BBR and incubated at time points ranging from 0-180 min prior to lysis. For immunofluorescent staining, N2a-SwedAPP cells were seeded on glass cover slips at a density of 0.5×10^5 viable cells per well in a 24-well plate. Cells on cover slips were treated with BBR (20 μM) for 3 h with or without pretreatment of LY294002 (Cell signaling Technology, Danvers, Mass.), a specific inhibitor of Akt upstream kinase phosphatidylinositol 3-kinase (PI3K) (Vlahos et al., 1994) in serum-free DMEM for 1 h, whereas control cells were incubated with vehicle (DMSO) alone in DMEM.
The brain SDS fraction as described above was used to detect the full-length APP (Fl-APP), APP C-terminal fragments (CTFs: CTF-β and CTF-α), p-APP, p-CTFs, BACE-1, ADAM-10, neprilysin, insulin-degrading enzyme (IDE), GSK3α/β, p-cyclin-dependent kinase 5 (p-CDKS), p-stress-activated protein kinase/Jun-amino-terminal kinase (p-JNK), phospho-tau epitopes and β-actin in Western blot analysis. For cell homogenates preparation, cells were washed with phosphate-buffered saline (PBS) and solubilized in ice-cold RIPA buffer. Equal amounts of protein (30 μg) were subjected to 10 and 15% SDS polyacrylamide gels, transferred onto PVDF membranes (GE Healthcare, Piscataway, N.J.) at 300 mA for 2 h, and then blocked with 5% fat-free milk in Tris-buffered saline and 0.1% Tween-20 for 2 h at room temperature. The membrane was then incubated with primary antibodies overnight at 4C. The antibodies used in Western blots were β-actin (mouse, 1:5000; Santa Cruz, Calif.), p-APP (rabbit, 1:1000; Cell signaling Technology), BACE-1 (rabbit, 1:1000; Abcam, Cambridge, Mass.), ADAM-10 (rabbit, 1:2000; EMD chemicals), insulin-degrading enzyme (IDE) (rabbit, 1:1000, Abcam), neprilysin (rabbit, 1:1000 Millipore, Temecula, Calif.), Akt (rabbit, 1:1000; Cell Signaling Technology), p-Akt (rabbit, 1:1000; Cell signaling), glycogen synthase kinase 3α/β(GSK-3α/β)[Ser21/9] (rabbit, 1:1000; Cell signaling Technology), pGSK-3α/βSer21/9] (rabbit, 1:1000; Cell signaling Technology), Cdk5[Y15] (rabbit, 1:1000; Abcam), JNK (Thr183/Tyr185) (rabbit, 1:1000, Cell signaling Technology), the C-terminal anti-APP antibody CT15 for full-length APP and CTFβ and CTFα (rabbit, 1:2000, and three mouse monoclonal antibodies against phosphorylated tau: AT8 (recognizes phosphorylated tau at Ser-202 and Thr-205, 1:1000, Pierce, Rockford, Ill.), AT180 (recognizes phosphorylated tau at Thr-231 and Ser-235, 1:1000, Pierce) and PHF-1 (recognizes -phosphorylated tau at […] and Ser 404, 1:2000, and one mouse monoclonal against dephosphorylaed tau: Tau-1 (recognizes the tau when serines 195, 198, 199, and 202 are dephosphorylated, 1:2000,). Mouse monoclonal Tau-5 used to recognize total tau (mouse 1:2000). Blots were washed in and incubated with corresponding horseradish peroxidase-conjugated secondary antibody. […]

[4] = low dose BBR, SDS and FA fractions
[5] = BBR-treated TgCRND8, dose not stated (discussion)

With `COc1ccc2cc3[n+](cc2c1OC)CCc1cc2c(cc1-3)OCO2` [BBR, 5,6-dihydro-9,10-dimethoxybenzo[g]-1,3-benzodioxolo[5,6-a]quinolizinium] the “diminution of Aβ1-40, SDS-soluble fraction” value (TgCRND8 mice [1]; 25 mg/Kg/d) was 44%, the “reduction of Aβ1-40, formic acid extractable fraction” value (TgCRND8 mice [1]; 25 mg/Kg/d) was 49% and the “reduction of Aβ1-42, formic acid extractable fraction” value (TgCRND8 mice [1]; 25 mg/Kg/d) was 44%. The “diminution of Aβ1-40, SDS-soluble fraction” value (TgCRND8 mice [1]; 100 mg/Kg/d) was 32%, the “reduction of Aβ1-40, formic acid extractable fraction” value (TgCRND8 mice [1]; 100 mg/Kg/d) was 54% and the “reduction of Aβ1-42, formic acid extractable fraction” value (TgCRND8 mice [1]; 100 mg/Kg/d) was 39%. The “Aβ1-42, SDS-soluble fraction” value (TgCRND8 mice [1]; BBR treatments (25 and 100 mg/Kg/d)) was “slight reduction”, the “reduction of total extracted Aβ40” value (TgCRND8 mice [1]; [4]) was 44-49% and the “reduction of total extracted Aβ42” value (TgCRND8 mice [1]; [4]) was 22-43%. For the same compound, the concentration at 3 hr ([2]; 25 mg/kg/d, low dose of BBR) was 880 ± 270 nM, the concentration at 3 hr ([2]; 100 mg/kg/d, high dose of BBR) was 1670 ± 730 nM and the “passage through the blood-brain barrier” value ([2]; mouse, in vivo) was “readily passes through the blood-brain barrier”. The “GFAP burden (astrocytosis) reduced to % relative to vehicle-treated” value (TgCRND8 mice [3]; 25 mg/Kg) was 54%, the “Iba-1 burden (microgliosis) reduced to % relative to vehicle-treated” value (TgCRND8 mice [3]; 25 mg/Kg/d) was 45% and the “GFAP burden (astrocytosis) reduced to % relative to vehicle-treated” value (TgCRND8 mice [3]; 100 mg/Kg) was 28%. The “Iba-1 burden (microgliosis) reduced to % relative to vehicle-treated” value (TgCRND8 mice [3]; 100 mg/Kg/d) was 27%, the decrease in astrocytosis (TgCRND8 mice [3]; [5]) was 54% and the reduction in microgliosis (TgCRND8 mice [3]; [5]) was 45%. For the same compound, the “reduction in the level of CTFs” value (N2a-SwedAPP cells; 5 μM BBR, 12 hours) was 24%, the “decrease of p-APP (Thr668) level” value (N2a-SwedAPP cells; 10 μM BBR, 12 hours) was 50% and the “level of tau bound to PHF-1 decreased to % compared to control” value (N2a-SwedAPP cells; 10 μM BBR, 12 hours) was 30%. For the same compound, the “amount of phosphorylated GSK3, time course” value (N2a-SwedAPP cells; 20 μM BBR, 0-180 min, remains higher than control beyond 3 h) was “increases during the first 30 min”, the “decrease of p-APP (Thr668) level” value (N2a-SwedAPP cells; 20 μM BBR, 12 hours) was 75% and the “level of tau bound to PHF-1 decreased to % compared to control” value (N2a-SwedAPP cells; 20 μM BBR, 12 hours) was 50%. For the same compound, the “reduction of CTFs level (of basal level), maximal” value (N2a-SwedAPP cells; 20 μM BBR, 12 hours) was 55%, the “phosphorylation of Akt at Ser 473 and GSK3 at Ser 21 and Ser9, concentration-dependent” value (N2a-SwedAPP cells; BBR 10 and 20 μM, 3 hours) was “significant increases” and the “cellular total Akt and GSK3β levels” value (N2a-SwedAPP cells; BBR treatment) was “does not significantly affect”.
